Results reported in patent US9963464B2, “Macrocyclic compounds” (Bayer Pharma Aktiengesellschaft, priority 2014, dated 2018).
Where two headings read alike, the source gives them in different places.

Experiments:
Caco-2 cells = experiment: Proliferation assay Caco-2; format: cell-based, human; conditions: 4 days, crystal violet, read-out: Inhibition of Caco-2 cell proliferation IC50
Description: (§1) Cultivated tumour cells (HeLa, human cervical tumour cells, ATCC CCL-2; NCI-H460, human non-small cell lung carcinoma cells, ATCC HTB-177; A2780, human ovarian carcinoma cells, ECACC #93112519; DU 145, hormone-independent human prostate carcinoma cells, ATCC HTB-81; HeLa-MaTu-ADR, multidrug-resistant human cervical carcinoma cells, EPO-GmbH Berlin; Caco-2, human colorectal carcinoma cells, ATCC HTB-37; B16F10, mouse melanoma cells, ATCC CRL-6475) were plated at a density of 5,000 cells/well (DU145, HeLa-MaTu-ADR), 3,000 cells/well (NCI-H460, HeLa), 2,500 cells/well (A2780), 1,500 cells/well (Caco-2), or 1,000 cells/well (B16F10) in a 96-well multititer plate in 200 μL of their respective growth medium supplemented 10% fetal calf serum. After 24 hours, the cells of one plate (zero-point plate) were stained with crystal violet (see below), while the medium of the other plates was replaced by fresh culture medium (200 μl), to which the test substances were added in various concentrations (0 μM, as well as in the range of 0.001-10 μM). The cells were incubated for 4 days in the presence of test substances. Cell proliferation was determined by staining the cells with crystal violet: the cells were fixed by adding 20 μl/measuring point of an 11% glutaric aldehyde solution for 15 minutes at room temperature. After three washing cycles of the fixed cells with water, the plates were dried at room temperature. The cells were stained by adding 100 μl/measuring point of a 0.1% crystal violet solution (pH 3.0). After three washing cycles of the stained cells with water, the plates were dried at room temperature. The dye was dissolved by adding 100 μl/measuring point of a 10% acetic acid solution. The extinction was determined by photometry at a wavelength of 595 nm. The change of cell number, in percent, was calculated by normalization of the measured values to the extinction values of the zero-point plate (=0%) and the extinction of the untreated (0 μm) cells (=100%). The IC50 values (inhibitory concentration at 50% of maximal effect) were determined by means of a 4 parameter fit. Non-adherent MOLM-13 human acute myeloid leukemia cells (DSMZ ACC 554) were seeded at a density of 5,000 cells/well in a 96-well multititer plate in 100 μL of growth medium supplemented 10% fetal calf serum. After 24 hours, cell viability of one plate (zero-point plate) was determined with the Cell Titre-Glo Luminescent Cell Viability Assay (Promega), while 50 μL of test compound containing medium was added to the wells of the other plates (final concentrations in the range of 0.001-1 μM and DMSO controls). Cell viability was assessed after 72-hour exposure with the Cell Titre-Glo Luminescent Cell Viability Assay (Promega). IC50 values (inhibitory concentration at 50% of maximal effect) were determined by means of a 4 parameter fit on measurement data which were normalized to vehicle (DMSO) treated cells (=100%) and measurement readings taken immediately before compound exposure (=0%).

HeLa-MaTu-ADR cells = experiment: Proliferation assay HeLa-MaTu-ADR; format: cell-based, human; conditions: 4 days, crystal violet, read-out: Inhibition of HeLa-MaTu-ADR cell proliferation IC50
Description: as §1

CDK2/CycE = target: T1, CDK2/CycE (Homo sapiens, UniProt P24941); experiment: CDK2/CycE kinase assay (TR-FRET, Method 2a); format: biochemical; conditions: 10 μM ATP
T1 construct: GST; purchased ProQinase GmbH (Freiburg, Germany); host or cells: insect cells (Sf9)
Text: 2a. CDK2/CycE Kinase Assay:
CDK2/CycE-inhibitory activity of compounds of the present invention was quantified employing the CDK2/CycE TR-FRET assay as described in the following paragraphs:
Recombinant fusion proteins of GST and human CDK2 and of GST and human CycE, expressed in insect cells (Sf9) and purified by Glutathion-Sepharose affinity chromatography, were purchased from ProQinase GmbH (Freiburg, Germany). As substrate for the kinase reaction biotinylated peptide biotin-Ttds-YISPLKSPYKISEG (C-terminus in amid form) was used which can be purchased e.g. from the company JERINI Peptide Technologies (Berlin, Germany).
For the assay 50 nl of a 100 fold concentrated solution of the test compound in DMSO was pipetted into a black low volume 384 well microtiter plate (Greiner Bio-One, Frickenhausen, Germany), 2 μl of a solution of CDK2/CycE in aqueous assay buffer [50 mM Tris/HCl pH 8.0, 10 mM MgCl2, 1.0 mM dithiothreitol, 0.1 mM sodium ortho-vanadate, 0.01% (v/v) Nonidet-P40 (Sigma)] were added and the mixture was incubated for 15 min at 22° C. to allow pre-binding of the test compounds to the enzyme before the start of the kinase reaction. […] The concentration of CDK2/CycE was adjusted depending of the activity of the enzyme lot and was chosen appropriate to have the assay in the linear range, typical concentrations were in the range of 130 ng/mL. The reaction was stopped by the addition of 5 μl of a solution of TR-FRET detection reagents (0.2 μM streptavidine-XL665 [Cisbio Bioassays, Codolet, France] and 1 nM anti-RB(pSer807/pSer811)-antibody from BD Pharmingen [#558389] and 1.2 nM LANCE EU-W1024 labeled anti-mouse IgG antibody [Perkin-Elmer, product no. AD0077]) in an aqueous EDTA-solution (100 mM EDTA, 0.2% (w/v) bovine serum albumin in 100 mM HEPES pH 7.5).
The resulting mixture was incubated 1 h at 22° C. to allow the formation of complex between the phosphorylated biotinylated peptide and the detection reagents. Subsequently the amount of phosphorylated substrate was evaluated by measurement of the resonance energy transfer from the Eu-chelate to the streptavidine-XL. Therefore, the fluorescence emissions at 620 nm and 665 nm after excitation at 350 nm was measured in a TR-FRET reader, e.g. a Rubystar (BMG Labtechnologies, Offenburg, Germany) or a Viewlux (Perkin-Elmer). The ratio of the emissions at 665 nm and at […] was taken as the measure for the amount of phosphorylated substrate. The data were normalised (enzyme reaction without inhibitor=0% inhibition, all other assay components but no enzyme=100% inhibition).

DU145 cells = experiment: Proliferation assay DU145; format: cell-based, human; conditions: 4 days, crystal violet, read-out: Inhibition of DU145 cell proliferation IC50
Description: as §1

Row | Compound | IC50 (Caco-2 cells; Homo sapiens, Caco-2, 96 h) [nM] | IC50 (HeLa-MaTu-ADR cells; Homo sapiens, 96 h) [nM] | IC50 (CDK2/CycE) [nM] | IC50 (DU145 cells; Homo sapiens, DU-145, 96 h) [nM] | IC50 (Caco-2 cells) [nM] | IC50 (HeLa-MaTu-ADR cells) [nM] | IC50 (DU145 cells) [nM]
1 | CCOC(=O)N=S(C)(=O)Cc1cc2nc(c1)OCCCOc1cc(F)ccc1-c1cc(ncc1F)N2 (racemic) [Example 20, (rac)-ethyl [{[15,19-difluoro-3,4-dihydro-2H,11H-10,6-(azeno)-12,16-(metheno)-1,5,11,13-benzodioxadiazacyclooctadecin-8-yl]methyl}(methyl)oxido-λ^6-sulfanylidene]carbamate] | 24 | 30 | 11.7 | 55 | – | – | –
2 | CCNC(=O)N=S(C)(=O)Cc1cc2nc(c1)OCCCOc1cc(F)ccc1-c1cc(ncc1F)N2 (racemic) [Example 17, (rac)-1-[{[15,19-difluoro-3,4-dihydro-2H,11H-10,6-(azeno)-12,16-(metheno)-1,5,11,13-benzodioxadiazacyclooctadecin-8-yl]methyl}(methyl)oxido-λ^6-sulfanylidene]-3-ethylurea] | 21 | 25 | 5.6 | 36 | – | – | –
3 | CS(=O)(Cc1cc2nc(c1)OCCCOc1cc(F)ccc1-c1cc(ncc1F)N2)=NC(=O)OCCCl (racemic) [Example 21, (rac)-2-chloroethyl [{[15,19-difluoro-3,4-dihydro-2H,11H-10,6-(azeno)-12,16-(metheno)-1,5,11,13-benzodioxadiazacyclooctadecin-8-yl]methyl}(methyl)oxido-λ^6-sulfanylidene]carbamate] | 16 | 15 | 11.6 | 31 | – | – | –
4 | CSCc1cc2nc(c1)OCCCOc1cc(F)ccc1-c1cc(ncc1F)N2 [Example 3, 15,19-Difluoro-8-[(methylsulfanyl)methyl]-3,4-dihydro-2H,11H-10,6-(azeno)-12,16-(metheno)-1,5,11,13-benzodioxadiazacyclooctadecine] | < 30 | 70 | 41 | 88 | – | – | –
5 | CS(=O)(=O)Cc1cc2nc(c1)OCCCOc1cc(F)ccc1-c1cc(ncc1F)N2 [Example 8, 15,19-difluoro-8-[(methylsulfonyl)methyl]-3,4-dihydro-2H,11H-10,6-(azeno)-12,16-(metheno)-1,5,11,13-benzodioxadiazacyclooctadecine] | 11 | 9 | 5 | 17 | – | – | –
6 | CS(=O)(Cc1cc2nc(c1)OCCCOc1cc(F)ccc1-c1cc(ncc1F)N2)=NC(=O)OCCN (racemic) [Example 25, (rac)-2-aminoethyl [{[15,19-difluoro-3,4-dihydro-2H,11H-10,6-(azeno)-12,16-(metheno)-1,5,11,13-benzodioxadiazacyclooctadecin-8-yl]methyl}(methyl)oxido-λ^6-sulfanylidene]carbamate] | 47 | 32 | 5.6 | 123 | – | – | –
7 | CN=S(C)(=O)Cc1cc2nc(c1)OCCCOc1cc(F)ccc1-c1cc(ncc1F)N2 (racemic) [Example 19, (rac)-8-[(N,S-dimethylsulfonimidoyl)methyl]-15,19-difluoro-3,4-dihydro-2H,11H-10,6-(azeno)-12,16-(metheno)-1,5,11,13-benzodioxadiazacyclooctadecine] | 33 | 38 | 15.4 | 78 | – | – | –
8 | CSCc1cc2cc(c1)OCCCOc1cc(F)ccc1-c1nc(ncc1F)N2 [Example 2, 15,19-Difluoro-8-[(methylsulfanyl)methyl]-3,4-dihydro-2H,11H-12,16-(azeno)-10,6-(metheno)-1,5,11,13-benzodioxadiazacyclooctadecine] | 30 | 77 | 97.8 | 111 | – | – | –
9 | CS(=N)(=O)Cc1cc2nc(c1)OCCCOc1cc(F)ccc1-c1cc(ncc1F)N2 (single isomer, unassigned; enantiomer 1) [Example 6, 15,19-Difluoro-8-[(S-methylsulfonimidoyl)methyl]-3,4-dihydro-2H,11H-10,6-(azeno)-12,16-(metheno)-1,5,11,13-benzodioxadiazacyclooctadecine; Enantiomer 1] | 5 | 5 | 2.7 | 4 | – | – | –
10 | ({[15,19-difluoro-3,4-dihydro-2H,11H-10,6-(azeno)-12,16-(metheno)-1,5,11,13-benzodioxadiazacyclooctadecin-8-yl]methyl}sulfonyl)acetic acid [Example 27] | – | – | 2.3 | – | 2100 | 1280 | 3360
11 | CS(=N)(=O)Cc1cc2cc(c1)OCCCCOc1cc(F)ccc1-c1nc(ncc1F)N2 (racemic) [Example 1, (rac)-16,20-Difluoro-9-[(S-methylsulfonimidoyl)methyl]-2,3,4,5-tetrahydro-12H-13,17-(azeno)-11,7-(metheno)-1,6,12,14-benzodioxadiazacyclononadecine] | 9 | – | 21.2 | 10 | – | – | –
12 | CS(=N)(=O)Cc1cc2nc(c1)OCCCOc1cc(F)ccc1-c1cc(ncc1F)N2 (racemic) [Example 5, (rac)-15,19-Difluoro-8-[(S-methylsulfonimidoyl)methyl]-3,4-dihydro-2H,11H-10,6-(azeno)-12,16-(metheno)-1,5,11,13-benzodioxadiazacyclooctadecine] | 4 | – | 2 | 4 | – | – | –
13 | CSCc1cc2nc(c1)OCCOc1cc(F)ccc1-c1cc(ncc1F)N2 [Example 9, 14,18-Difluoro-7-[(methylsulfanyl)methyl]-2,3-dihydro-10H-9,5-(azeno)-11,15-(metheno)-1,4,10,12-benzodioxadiazacycloheptadecine] | 811 | – | 18200 | – | – | – | –
